Active and inactive are the calls of the source. The calls are words filed in the database; no cut-off is given here.
Assays:
MV4-11 [1] = assay: Downregulation of BRD3 protein level in human MV4-11 cells at 10 nM incubated for 6 hrs by proteomic analysis; type: functional, cell-based
MV4-11 [2] = assay: Downregulation of BRD2 protein level in human MV4-11 cells at 10 nM incubated for 6 hrs by proteomic analysis; type: functional, cell-based
MV4-11 [3] = assay: Antiproliferative activity against human MV4-11 cells incubated for 120 hrs by Cell-Titer Glo assay; conditions: MV4-11, 120 h
MV4-11 [4] = assay: Downregulation of STAT1 protein in human MV4-11 cells at 10 nM incubated for 6 hrs by proteomic analysis; type: functional, cell-based
[5] = Toxicity in NOD/SCID mouse xenografted with human MV4-11 cells assessed as effect on heart at 5 mg/kg, ip administered every other day for 2 weeks by H and E staining based assay; type: organism-based; conditions: in vivo, 336 h
MV4-11 [6] = assay: Downregulation of p300 protein level in human MV4-11 cells assessed as fold decrease at 10 nM incubated for 6 hrs by proteomic blotting analysis; type: functional, cell-based
KG-1 = assay: Antiproliferative activity against human KG-1 cells upto 10 uM; type: functional, cell-based
MV4-11 [7] = assay: Downregulation of SMARCA4 protein level in human MV4-11 cells at 10 nM incubated for 6 hrs by proteomic analysis; type: functional, cell-based
MOLM-13 [8] = assay: Antiproliferative activity against human MOLM-13 cells incubated for 72 hrs by Cell-Titer Glo assay; conditions: MOLM-13, 72 h
MV4-11 [9] = assay: Downregulation of TP53RK protein in human MV4-11 cells at 10 nM incubated for 6 hrs by proteomic analysis; type: functional, cell-based
MV4-11 [10] = assay: Downregulation of STAT2 protein in human MV4-11 cells at 10 nM incubated for 6 hrs by proteomic analysis; type: functional, cell-based
[11] = Antiproliferative activity against human MOLM16 cells incubated for 72 hrs by Cell-Titer Glo assay; conditions: MOLM16, 72 h
MV4-11 [12] = assay: Downregulation of GSPT1 protein level in human MV4-11 cells at 10 nM incubated for 6 hrs by proteomic analysis; type: functional, cell-based
MV4-11 [13] = assay: Downregulation of KRAS protein in human MV4-11 cells at 10 nM incubated for 6 hrs by proteomic analysis; type: functional, cell-based
MV4-11 [14] = assay: Downregulation of BRD4 protein level in human MV4-11 cells at 10 nM incubated for 6 hrs by proteomic analysis; type: functional, cell-based
MV4-11 [15] = assay: Downregulation of IKZF1 mRNA level in human MV4-11 cells at 100 nM incubated for 6 hrs by qRT-PCR analysis; type: functional, cell-based
MV4-11 [16] = assay: Downregulation of IRF4 protein in human MV4-11 cells at 10 nM incubated for 6 hrs by proteomic analysis; type: functional, cell-based
MV4-11 [17] = assay: Downregulation of CBP mRNA level in human MV4-11 cells at 100 nM incubated for 6 hrs by qRT-PCR analysis; type: functional, cell-based
MV4-11 [18] = assay: Downregulation of TRIM24 protein level in human MV4-11 cells at 10 nM incubated for 6 hrs by proteomic analysis; type: functional, cell-based
MOLM-13 [19] = assay: Downregulation of c-Myc protein level in human MOLM-13 cells at 50 nM incubated for 24 hrs by Western blotting analysis; type: functional, cell-based
[20] = Toxicity in NOD/SCID mouse xenografted with human MV4-11 cells assessed as body weight loss at 5 mg/kg, ip administered every other day for 2 weeks; type: organism-based; conditions: in vivo, 336 h
[21] = Toxicity in NOD/SCID mouse xenografted with human MV4-11 cells assessed as effect on kidney at 5 mg/kg, ip administered every other day for 2 weeks by H and E staining based assay; type: organism-based; conditions: in vivo, 336 h
EOL1 = assay: Antiproliferative activity against human EOL1 cells upto 10 uM; type: functional, cell-based
[22] = Toxicity in NOD/SCID mouse xenografted with human MV4-11 cells assessed as effect on lung at 5 mg/kg, ip administered every other day for 2 weeks by H and E staining based assay; type: organism-based; conditions: in vivo, 336 h
MV4-11 [23] = assay: Downregulation of CDK5 protein in human MV4-11 cells at 10 nM incubated for 6 hrs by proteomic analysis; type: functional, cell-based
[24] = Toxicity in NOD/SCID mouse xenografted with human MV4-11 cells assessed as aggregation of multinucleated giant cells in spleen at 5 mg/kg, ip administered every other day for 2 weeks by H and E staining based assay; type: organism-based; conditions: in vivo, 336 h
MV4-11 [25] = assay: Downregulation of ZFP91 protein level in human MV4-11 cells at 10 nM incubated for 6 hrs by proteomic analysis; type: functional, cell-based
THP-1 = assay: Antiproliferative activity against human THP-1 cells upto 10 uM; type: functional, cell-based
MV4-11 [26] = assay: Downregulation of IKZF1 level in human MV4-11 cells at 10 uM incubated for 6 hrs by Western blotting analysis; type: functional, cell-based
[27] = Toxicity in NOD/SCID mouse xenografted with human MV4-11 cells assessed as lymphocyte infiltration in liver at 5 mg/kg, ip administered every other day for 2 weeks by H and E staining based assay; type: organism-based; conditions: in vivo, 336 h
MOLM-16 = assay: Downregulation of c-Myc protein level in human MOLM16 cells at 50 nM incubated for 24 hrs by Western blotting analysis; type: functional, cell-based
MV4-11 [28] = assay: Downregulation of c-Myc protein level in human MV4-11 cells at 50 nM incubated for 24 hrs by Western blotting analysis; type: functional, cell-based
MV4-11 [29] = assay: Downregulation of p300 mRNA level in human MV4-11 cells at 100 nM incubated for 6 hrs by qRT-PCR analysis; type: functional, cell-based
MV4-11 [30] = assay: Antitumor activity against human MV4-11 cells xenografted in NOD-SCID mouse assessed as tumor growth inhibition at 5 mg/kg, ip administered every other day for 2 weeks; type: functional; conditions: MV4-11, 336 h, read-out: TGI
Mus musculus [31] = assay: In vivo induction of CBP degradation in NOD/SCID mouse tumor xenografted with human MV4-11 cells at 5 mg/kg, ip administered every other day for 2 weeks by immunoblotting analysis; type: functional, organism-based
[32] = Toxicity in NOD/SCID mouse xenografted with human MV4-11 cells assessed as effect on kidney at 2 to 5 mg/kg, ip administered every other day for 2 weeks by H and E staining based assay; type: organism-based; conditions: in vivo, 336 h, dose 2-5 mg/kg
[33] = Toxicity in NOD/SCID mouse xenografted with human MV4-11 cells assessed as lymphocyte infiltration in liver at 2 to 5 mg/kg, ip administered every other day for 2 weeks by H and E staining based assay; type: organism-based; conditions: in vivo, 336 h, dose 2-5 mg/kg
MV4-11 [34] = assay: Antitumor activity against human MV4-11 cells xenografted in NOD-SCID mouse assessed as tumor growth inhibition at 2 mg/kg, ip administered every other day for 2 weeks; type: functional; conditions: MV4-11, 336 h, read-out: TGI
Mus musculus [35] = assay: In vivo induction of CBP degradation in NOD/SCID mouse tumor xenografted with human MV4-11 cells at 2 to 5 mg/kg, ip administered every other day for 2 weeks by immunoblotting analysis; type: functional, organism-based; conditions: dose 2-5 mg/kg
Mus musculus [36] = assay: In vivo induction of p300 degradation in NOD/SCID mouse tumor xenografted with human MV4-11 cells at 2 to 5 mg/kg, ip administered every other day for 2 weeks by immunoblotting analysis; type: functional, organism-based; conditions: dose 2-5 mg/kg
[37] = Toxicity in NOD/SCID mouse xenografted with human MV4-11 cells assessed as effect on heart at 2 to 5 mg/kg, ip administered every other day for 2 weeks by H and E staining based assay; type: organism-based; conditions: in vivo, 336 h, dose 2-5 mg/kg
[38] = Toxicity in NOD/SCID mouse xenografted with human MV4-11 cells assessed as aggregation of multinucleated giant cells in spleen at 2 to 5 mg/kg, ip administered every other day for 2 weeks by H and E staining based assay; type: organism-based; conditions: in vivo, 336 h, dose 2-5 mg/kg
[39] = Toxicity in NOD/SCID mouse xenografted with human MV4-11 cells assessed as effect on lung at 2 to 5 mg/kg, ip administered every other day for 2 weeks by H and E staining based assay; type: organism-based; conditions: in vivo, 336 h, dose 2-5 mg/kg
[40] = Toxicity in NOD/SCID mouse xenografted with human MV4-11 cells assessed as body weight loss at 2 to 5 mg/kg, ip administered every other day for 2 weeks; type: organism-based; conditions: in vivo, 336 h, dose 2-5 mg/kg

Row | Compound | Activity (MV4-11 [1]) | Activity (MV4-11 [2]) | IC50 (MV4-11 [3]) | Activity (MV4-11 [4]) | Activity (KG-1) | Activity (MV4-11 [7]) | IC50 (MOLM-13 [8]) | Activity (MV4-11 [9]) | Activity (MV4-11 [10]) | IC50 [11] | Activity (MV4-11 [12]) | Activity (MV4-11 [13]) | Activity (MV4-11 [14]) | Activity (MV4-11 [15]) | Activity (MV4-11 [16]) | Activity (MV4-11 [17]) | Activity (MV4-11 [18]) | Activity (MOLM-13 [19]) | Activity (EOL1) | Activity (MV4-11 [23]) | also measured
1 | Cc1noc(C)c1-c1ccc2c(c1)nc([C@@H]1CCCC(=O)N1c1ccc(F)c(F)c1)n2C1CCN(CC(=O)Nc2cnc(-c3ccc(CNc4cccc5c4C(=O)N(C4CCC(=O)NC4=O)C5=O)cc3)nc2)CC1 (stereo partly specified) | inactive | inactive | 0.9 nM | Active | inactive | inactive | 47 nM | Active | Active | 5.5 nM | inactive | Active | inactive | Active | Active | inactive | inactive | Active | inactive | Active | Activity [5]: Non-Toxic; Activity (MV4-11 [6]): inactive; Activity [20]: Non-Toxic; Activity [21]: Non-Toxic; Activity [22]: Non-Toxic; Activity [24]: Toxic; Activity (MV4-11 [25]): inactive; Activity (THP-1): inactive; Activity (MV4-11 [26]): Active; Activity [27]: Toxic; Activity (MOLM-16): Active; Activity (MV4-11 [28]): Active; Activity (MV4-11 [29]): inactive; inhibition in vivo at 5 mg/kg (MV4-11 [30]): 93%; Activity (Mus musculus [31]): Active
2 | Cc1noc(C)c1-c1ccc2c(c1)nc([C@@H]1CCCC(=O)N1c1ccc(F)c(F)c1)n2C1CCN(CC(=O)Nc2ccc(-c3ccc(CNc4cccc5c4C(=O)N(C4CCC(=O)NC4=O)C5=O)cc3)nc2)CC1 (stereo partly specified) | inactive | inactive | 1.8 nM | Active | inactive | inactive | 26.9 nM | Active | Active | 4.6 nM | inactive | Active | inactive | Active | Active | inactive | inactive | Active | inactive | Active | Activity [32]: Non-Toxic; Activity [33]: Toxic; inhibition in vivo at 2 mg/kg (MV4-11 [34]): 53%; Activity (Mus musculus [35]): Active; Activity (Mus musculus [36]): Active; Activity [37]: Non-Toxic; Activity [38]: Toxic; Activity (MV4-11 [25]): inactive; Activity (THP-1): inactive; Activity (MV4-11 [26]): Active; Activity [39]: Non-Toxic; Activity (MOLM-16): Active; Activity (MV4-11 [28]): Active; Activity (MV4-11 [29]): inactive; inhibition in vivo at 5 mg/kg (MV4-11 [30]): 88%; Activity [40]: Non-Toxic

— ChEMBL document CHEMBL5506020 (J Med Chem, 2024)
